Test [1] has as its system CD69 expression on CD19+ B cells in human whole blood. As to the kind of experiment: In Vitro whole blood CD69 Assay. Format: cell-based. The conditions noted are these: B-cell, human heparinized whole blood, anti-human IgD stimulation. As for the experimental part:
In Vitro whole blood CD69 Assay
Human heparinized venous blood from health donors was aliquoted into 96-well plate and “spiked” with serial dilutions of formula I compounds in DMSO or with DMSO without drug. The final concentration of DMSO in all wells was 0.1%. The plate was incubated at 37° C. for 30 min. Drug-containing samples were stimulated with 0.1 μg/mL mouse anti-human IgD-dextran (1A^62) or 20 μg/mL polyclonal rabbit F(ab′)2 anti-human IgD. Phosphate-buffered saline (PBS) was added to the negative control unstimulated sample and the plates were incubated overnight (18 to 22 hours) at 37° C. Cells were stained with fluorochrome-conjugated anti-CD19 and anti-CD69 antibodies. Lyse/fix solution was used to remove red blood cells by hypotonic lysis and to fix the remaining cells, which were then analyzed by flow cytometry. CD19+ B cells were gated and analyzed for CD69 expression. The percentage of B cells expressing CD69 was plotted versus the log 10 of the concentration of the drug and the best-fit curves (variable Hill slope) were generated to obtain the IC50 value.

Test [2] deals with BTK (Homo sapiens (Human), UniProt Q06187). As to the kind of experiment: In Vitro BTK Kinase Assay: Btk-PolyGAT-LS Assay. Format: biochemical. Particulars: ATP 10 μM, polyGAT 100 nM, BTK 0.25 nM. As for the experimental part:
In Vitro BTK Kinase Assay: Btk-PolyGAT-LS Assay
The purpose of the BTK in vitro assay is to determine compound potency against BTK through the measurement of IC50. Compound inhibition is measured after monitoring the amount of phosphorylation of a fluorescein-labeled polyGAT peptide (Invitrogen PV3611) in the presence of active BTK enzyme (Upstate 14-552), ATP, and inhibitor. The BTK kinase reaction was done in a black 96 well plate (costar 3694). For a typical assay, a […] aliquot of a ATP/peptide master mix (final concentration; ATP 10 μM, polyGAT 100 nM) in kinase buffer (10 mM Tris-HCl pH 7.5, 10 mM MgCl2, 200 μM Na3PO4, 5 mM DTT, 0.01% Triton X-100, and 0.2 mg/ml casein) is added to each well. Next, […] of a 4-fold, 40× compound titration in 100% DMSO solvent is added, followed by adding 15 uL of BTK enzyme mix in 1× kinase buffer (with a final concentration of 0.25 nM). The assay is incubated for 30 minutes before being stopped with […] of a 50 mM EDTA solution. Aliquots (5 uL) of the kinase reaction are transferred to a low volume white 384 well plate (Coming 3674), and 5 pL of a 2× detection buffer (Invitrogen PV3574, with 4 nM Tb-PY20 antibody, Invitrogen PV3552) is added. The plate is covered and incubated for 45 minutes at room temperature. Time resolved fluorescence (TRF) on Molecular Devices M5 (332 nm excitation; 488 nm emission; 518 nm fluorescein emission) is measured. IC50 values are calculated using a four parameter fit with 100% enzyme activity determined from the DMSO control and 0% activity from the EDTA control.
“†” represents an IC50 of greater than 1 μM and equal to or less than 10 μM. “††” represents an IC50 of greater than 10 nM and equal to or less than 1 μM (10 nM<IC50≤1 μM). “†††” represents an IC50 of greater than 1 nM and equal to or less than 10 nM (1 nM<IC50≤10 nM).

Bounds are passed on as bounds.

Chain of BTK (Q06187 whole entry): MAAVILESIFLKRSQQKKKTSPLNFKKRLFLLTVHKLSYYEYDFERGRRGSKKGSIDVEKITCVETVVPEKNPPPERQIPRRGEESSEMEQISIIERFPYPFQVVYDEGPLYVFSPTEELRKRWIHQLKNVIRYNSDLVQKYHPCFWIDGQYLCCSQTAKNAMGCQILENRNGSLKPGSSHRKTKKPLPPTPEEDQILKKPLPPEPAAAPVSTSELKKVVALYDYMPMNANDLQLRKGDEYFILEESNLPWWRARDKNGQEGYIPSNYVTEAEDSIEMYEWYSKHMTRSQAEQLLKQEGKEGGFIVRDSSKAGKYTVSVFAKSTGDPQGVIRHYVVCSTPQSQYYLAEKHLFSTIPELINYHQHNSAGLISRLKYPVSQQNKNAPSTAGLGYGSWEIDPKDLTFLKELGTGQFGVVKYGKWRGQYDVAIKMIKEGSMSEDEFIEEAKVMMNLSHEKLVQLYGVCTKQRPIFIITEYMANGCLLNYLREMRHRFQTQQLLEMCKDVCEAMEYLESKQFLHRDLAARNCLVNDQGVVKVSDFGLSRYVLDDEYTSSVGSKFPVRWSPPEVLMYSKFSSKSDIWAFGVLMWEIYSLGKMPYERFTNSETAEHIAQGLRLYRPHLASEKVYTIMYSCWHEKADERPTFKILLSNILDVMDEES

In general, IC50 refers to the concentration that inhibits the measured activity by half. High values mean weaker potency, low ones greater potency. Turning to `Cc1cc(-c2ncnn3cc(-c4cnn(C)c4)cc23)ccc1CN1CCN(CC(C)C)C(C)C1=O` (stereo not shown) [Compound 4, 4-isobutyl-3-methyl-1-(2-methyl-4-(6-(1-methyl-1H-pyrazol-4-yl)pyrrolo[2,1-f][1,2,4]triazin-4-yl)benzyl)piperazin-2-one], the half-maximal inhibitory concentration (IC50) in test [1] was no less than 10 µM; in test [2], 0.001 to 0.01 µM.

`Cc1cc(-c2ncnn3cccc23)ccc1CN1CCN(CC(C)C)C(C)C1=O` (stereo not shown) [Compound 2, 4-isobutyl-3-methyl-1-(2-methyl-4-(pyrrolo[2,1-f][1,2,4]triazin-4-yl)benzyl)piperazin-2-one]: the half-maximal inhibitory concentration (IC50) in test [1] was no less than 10 µM; in test [2], 0.01 to 1 µM.

`Cc1cc(-c2ncnn3cccc23)ccc1CN1CCN(C2CC(F)(F)C2)C(C)C1=O` (stereo not shown) [Compound 3, 4-(3,3-difluorocyclobutyl)-3-methyl-1-(2-methyl-4-(pyrrolo[2,1-f][1,2,4]triazin-4-yl)benzyl)piperazin-2-one] yielded a half-inhibitory concentration (IC50) in test [2] of 1 to 10 µM.

Regarding `Cc1cc(-c2ncnn3cccc23)ccc1CN1CCNC(C)C1=O` (stereo not shown) [Compound 1, 3-methyl-1-(2-methyl-4-(pyrrolo[2,1-f][1,2,4]triazin-4-yl)benzyl)piperazin-2-one], the IC50 was no less than 10 µM in test [1] and 1 to 10 µM in test [2].

The record behind these values is patent US12565500B2, “Substituted pyrrolo[1,2-b]pyridazines and pyrrolo[2,1-f][1,2,4]triazines as Btk inhibitors” (BIOGEN MA INC., priority 2019, dated 2026).
